Values joined by “and” are separate entries in the source; they are usually repeats but may differ in a detail not shown here. Identical values can stand only once. Like-named read-outs stand apart in the source and are kept apart here.
Tests used:
[1] = tested on: P388/DX leukemic cells resistant to Adriamycin; settings: for Log cell kill: calculated assuming doubling time 0.4 day
[2] = tested on: carrageenan-induced paw edema; assay: Carrageenan-induced paw edema; assay type: in vivo, B6D2F1 mice; settings: for Pedis Area: individual mice 1-4; for Pedis Area, Mean: mean of 4 mice
Description: Carrageene (1%, 30 μl) was injected i.m. into the pedis of B6D2F1 mice (4 mice/group) to induced edemic inflammation at 0 hours. N3, N5 (i.p. injection) or oral administration of aspirin 500 mg/kg, or topical application of hydrocortisone cream (1%) or Lidex cream (0.05%) to the pedis skins were given at −1, 6, 12 and 24 hours. The control mice received dimethylsulfoxide (the vehicle of ningalins). The pedis areas (in mm^2) were measured at 0, 3, 6, 12, 24, 36 and 48 hours.

[3] = tested on: P388/DX leukemic cells; assay type: in vivo, B6D2F1 mice; settings: for Log cell kill: calculated assuming doubling time 0.4 day
[4] = tested on: human lymphocytes; assay: Inhibition of PHA-stimulated lymphocyte proliferation ([3H]thymidine incorporation); assay type: cell-based; settings: for IC50: read-out: Immunosuppressive Effect (IC50 in μM) [B]
[5] = Cytotoxicity measured by cell proliferation inhibition; assay type: cell-based
[6] = tested on: C57BL/6 heart allografts; assay: Heterotopic heart transplantation in mice; assay type: in vivo, Balb/c mice
Description: Heterotopic heart transplantation was performed in rats and mice. In brief, heart transplantation was performed by previously described modified method. Hearts harvested from donors were perfused with chilled saline and immediately transplanted to recipients under full anesthesia. Suture 10-0 in rats and 12-0 in mice (Ethicon; Somerville, N.J.) was used to perform anastomosis of aorta to aorta and pulmonary artery to vena cava. Heartbeat was evaluated daily and the day of complete cessation was considered rejection. Animals that died within three days after transplantation were excluded from the analysis (less than 5%).
Mice were also transplanted with heart allografts. In particular, untreated Balb/c (H-2^d) recipients rejected C57BL/6 (H-2^b) heart allografts at a MST of 7.8±0.84 days (n=5). Treatment with 40 mg/kg N5, QDx7, extended heart allograft survival to 13.33±2.52 days, which increased life span 71% (n=3; p<0.03).
Mice heart allografts were treated with 20 mg/kg of N3, QDx7, i.p. In particular, untreated Balb/c (H-2^d) recipients rejected C57BL/6 ([…]) heart allografts at a MST of […] days (n=5). Treatment with 20 mg/kg of N3 (i.e., one-half of dose of N5) extended heart allograft survival to 18.75±3.86 days (n=4; p<0.0005), an increase in lifespan of 140%.

[7] = Adriamycin 3.0 mg/kg iv alone or with N3 20 mg/kg ip, QD × 3
[8] = N3 20 mg/kg ip and/or Adriamycin 1.5 mg/kg iv, QD × 3
[9] = 0 hr, aspirin 500 mg/kg oral, N3 100 mg/kg i.p., N5 50 mg/kg i.p., hydrocortisone cream 1%, Lidex cream 0.05% topical, given at −1, 6, 12, 24 hours
[10] = N3 20 mg/kg ip and/or Taxol 5.0 mg/kg iv, QD × 3
[11] = PHA-stimulated human lymphocyte proliferation
[12] = Taxol 10.0 mg/kg iv alone or with N3 20 mg/kg ip, QD × 3

Structure (SMILES) | Lifespan increase (%) [1, 8] | Median survival time (days ± SD) [1, 8] | Pedis Area [2, 9] | Pedis Area, Mean ([2]; 0 hr, doses as E35) | Pedis Area ([2]; 3 hr, doses as E35) | Pedis Area, Mean ([2]; 3 hr, doses as E35) | Pedis Area ([2]; 6 hr, doses as E35) | Pedis Area, Mean ([2]; 6 hr, doses as E35) | Pedis Area ([2]; 12 hr, doses as E35) | Pedis Area, Mean ([2]; 12 hr, doses as E35) | Pedis Area ([2]; 24 hr, doses as E35) | Pedis Area, Mean ([2]; 24 hr, doses as E35) | Pedis Area ([2]; 36 hr, doses as E35) | Pedis Area, Mean ([2]; 36 hr, doses as E35) | Pedis Area ([2]; 48 hr, doses as E35) | Pedis Area, Mean ([2]; 48 hr, doses as E35) | Lifespan increase (%) [3, 10] | Median survival time (days ± SD) [3, 10] | IC50 [4, 11] | IC50 [5] | other results
COc1cccc2c1C(=O)c1c(O)c3c(c(O)c1C2=O)C[C@@](O)(C(=O)CO)C[C@@H]3O[C@H]1C[C@H](N)[C@H](O)[C@H](C)O1 [Adriamycin, Doxorubicin] | +7% | 11.25 ± 1.75 days | – | – | – | – | – | – | – | – | – | – | – | – | – | – | – | – | – | – | Log cell kill ([1]; Adriamycin 1.5 mg/kg iv alone or with N3 20 mg/kg ip): 0.56; Lifespan increase (%) [1, 7]: +15%; Lifespan increase (days) [1, 7]: +1.58 days; Median survival time (days ± SD) [1, 7]: 12.08 ± 1.81 days; Log cell kill ([1]; Adriamycin 3.0 mg/kg iv alone or with N3 20 mg/kg ip): 1.19; Lifespan increase (days) [1, 8]: +0.75 days
CC(=O)Oc1ccccc1C(=O)O [Aspirin, aspirin, reference compound] | – | – | 100 mm^2 | 100 mm^2 | 142.2 mm^2 and 130.5 mm^2 and 122 mm^2 and 134.5 mm^2 | 132.3 mm^2 | 151.4 mm^2 and 139.8 mm^2 and 124.6 mm^2 and 149.6 mm^2 | 141.4 mm^2 | 138.5 mm^2 and 135.6 mm^2 and 120.3 mm^2 and 138.9 mm^2 | 133.3 mm^2 | 116.5 mm^2 and 116.9 mm^2 and 108.5 mm^2 and 118.6 mm^2 | 115.1 mm^2 | 114.7 mm^2 and 107.6 mm^2 and 94.1 mm^2 and 109.7 mm^2 | 106.5 mm^2 | 118.3 mm^2 and 105.9 mm^2 and 92.4 mm^2 and 111.5 mm^2 | 107 mm^2 | – | – | – | – | –
COc1ccc(CCn2cc(-c3ccc(OC)c(OC)c3)c3c4cc(OC)c(OC)cc4oc(=O)c32)cc1OC [Ningalin N3, 1-(3,4-Dimethoxy-phenyl)-3-[2-(3,4-dimethoxy-phenyl)-ethyl]-7,8-dimethoxy-3H-5-oxa-3-aza-cyclopenta[α]naphthalen-4-one] | −12% | 9.25 ± 0.66 days | 100 mm^2 | 100 mm^2 | 134.4 mm^2 and 142.7 mm^2 and 141.7 mm^2 and 139.5 mm^2 | 139.6 mm^2 | 140.6 mm^2 and 159.2 mm^2 and 153.4 mm^2 and 151.8 mm^2 | 151.3 mm^2 | 140.6 mm^2 and 150.5 mm^2 and 139.8 mm^2 and 135.1 mm^2 | 141.5 mm^2 | 134.4 mm^2 and 142.7 mm^2 and 136.9 mm^2 and 128.1 mm^2 | 135.5 mm^2 | 131.1 mm^2 and 136.9 mm^2 and 121.9 mm^2 and 127.9 mm^2 | 129.5 mm^2 | 131.1 mm^2 and 136.9 mm^2 and 115.8 mm^2 and 126 mm^2 | 127.5 mm^2 | −13% | 8.00 ± 0.54 days | 0.51 ± 0.19 µM | 51.3 ± 18 µM | lifespan of tumor bearing mice compared to saline treated controls ([3]; N3 20 mg/kg i.p. daily for three days): decreased the lifespan; Lifespan increase [3, 10]: -1.19 days; MST ± SD days (heart allograft survival) ([6]; B6 heart to Balb/c, N3 20 mg/kg QDx7 i.p., 20 mg/kg): 18.75±3.86 days; increase in lifespan ([6]; heart allograft, N3 20 mg/kg QDx7 i.p., vs untreated): 140%; Survival days (individual animals) ([6]; heart, N3 20 mg/kg, 20 mg/kg): 19 days and 24 days and 15 days and 17 days; anti-inflammatory effect (FIG. 3) ([2]; N5 50 mg/kg i.p., N3 100 mg/kg i.p., all drugs: at 12-48 hours): produced an anti-inflammatory effect; Lifespan increase [1, 8]: -1.25 days; decreased the lifespan ([1]; N3 alone 20 mg/kg i.p. daily for three days, vs control): 12%
COC(=O)c1c(-c2cc(OC)c(OC)c(OC)c2)c(-c2cc(OC)c(OC)c(OC)c2)c(C(=O)OC)n1CCc1ccc(OC)cc1 [Ningalin N6, 1-[2-(4-Methoxy-phenyl)-ethyl]-3,4-bis-(3,4,5-trimethoxy-phenyl)-1H-pyrrole-2,5-dicarboxylic acid dimethyl ester] | – | – | – | – | – | – | – | – | – | – | – | – | – | – | – | – | – | – | 1.61 ± 0.31 µM | 70.2 ± 20.5 µM | Selectivity Ratio [A]/[B] ([4]; cytotoxicity IC50 / immunosuppressive IC50): 43.6
CC(=O)O[C@H]1C(=O)[C@@]2(C)[C@H]([C@H](OC(=O)c3ccccc3)[C@]3(O)C[C@H](OC(=O)[C@H](O)[C@@H](NC(=O)c4ccccc4)c4ccccc4)C(C)=C1C3(C)C)[C@]1(OC(C)=O)CO[C@@H]1C[C@@H]2O [Taxol, paclitaxel] | – | – | – | – | – | – | – | – | – | – | – | – | – | – | – | – | +4% | 9.56 ± 0.62 days | – | – | Lifespan increase (days) [3, 10]: +0.37 days; Log cell kill ([3]; Taxol 5.0 mg/kg iv alone or with N3 20 mg/kg ip): 0.28; Lifespan increase (%) [3, 12]: +4%; Lifespan increase (days) [3, 12]: +0.37 days; Median survival time (days ± SD) [3, 12]: 9.56 ± 0.88 days; Log cell kill ([3]; Taxol 10.0 mg/kg iv alone or with N3 20 mg/kg ip): 0.28
COc1ccc(CCN(C)CCCC(C#N)(c2ccc(OC)c(OC)c2)C(C)C)cc1OC (centres unmarked) [Verapamil, reference compound] | – | – | – | – | – | – | – | – | – | – | – | – | – | – | – | – | – | – | – | – | IC50 ([4]; Homo sapiens, Lymphocyte): 6.9 ± 1.01 µM

— patent US8138170B2, “Immunosuppressive Ningalin compounds” (Memorial Sloan-Kettering Cancer Center, priority 2004, dated 2012)
